Experimental data from patent US20060052326A1, “Werner's syndrome helicase as a target for anti -HIV/AIDS therapy” (priority 2004, published 2006).

B1: TatK28A/K50A (protein)
chain: MEPVDPRLEPWKHPGSQPKTACTNCYCAKCCFHCQVCFITKALGISYGRAKRRQRRRAHQNSQTHQASLSKQPTSQPRGDPTGPKE

How the values were obtained:
Assay type in all cases: cell-based
[1] = tested on: HIV-1 LTR; assay: HIV-1 LTR-luciferase reporter assay in co-transfected HeLa cells; settings: for effect on basal HIV-1 LTR transcriptional activity (in words): absence of Tat
Method: To determine whether the WRN or BLM helicases influence HIV-1 transcriptional activity and viral replication, HeLa cells were co-transfected with an HIV-1 LTR-luciferase reporter plasmid (0.5 μg), RSV-HIV-1 Tat (0.5 μg), and increasing amounts of CMV-WRN or CMV-BLM expression constructs (0.25, 0.5, 1.0 μg). Following transfection, the cells were lysed by repeated freeze-thawing and luciferase assays were performed using equivalent amounts of total cellular proteins.
Next, an assay was performed to determine whether WRN-associated helicase activity is required for WRN-mediated trans-activation from the HIV-1 LTR. HeLa cells were co-transfected as in A with the HIV-1 LTR-luciferase reporter plasmid (0.5 μg), RSV-HIV-1 Tat (0.5 μg), or increasing amounts of CMV-WRN and CMV-WRNK577M (a trans-dominant negative helicase-defective mutant) (0.25, 0.5, 1.0 μg) in the absence of HIV-1 Tat expression. Results shown in FIG. 3B are averages from duplicate assays and error bars representing standard deviations between samples are provided.

[2] = tested on: HIV-1 LTR^ΔκB; assay: HIV-1 LTR^ΔκB-luciferase mutant reporter assay in co-transfected HeLa cells; settings: for transcription from the HIV-1 LTR^ΔκB-luciferase construct (in words): absence of Tat
Method: To determine whether the TAR-RNA stem-loop secondary structure is sufficient to support WRN-mediated LTR trans-activation, HeLa cells were co-transfected with an HIV-1 LTR^ΔκB luciferase mutant reporter construct, lacking upstream NF-κB-responsive enhancer sequences (transcription from this construct is principally regulated at the level of elongation by TAR-RNA), RSV-HIV-1 Tat, or increasing amounts of CMV-WRN or CMV-WRNK577M (0.25, 0.5, 1.0 μg). Luciferase assays were performed as described using equivalent amounts of total cellular proteins.
The next experiment was undertaken to determine whether interactions with the Tat protein influence WRN's ability to trans-activate the HIV-1 LTR. […] All experiments were performed in duplicate or triplicate and error bars representative of standard deviations are shown in FIG. 4C.

[3] = tested on: HIV-1 LTR^ΔNFκB/ΔTAR; assay: HIV-1 LTR^ΔNFκB/ΔTAR-luciferase double-mutant reporter assay in HeLa cells
Text: HeLa cells were co-transfected as in A with a double-mutant, HIV-1 LTR^ΔNFκB/ΔTAR-luciferase reporter plasmid, deleted for κB-responsive elements and TAR-RNA sequences, RSV-HIV-1 Tat, CMV-WRN, or CMV-BLM.

[4] = tested on: HIV-1 LTR; assay: HIV-1 LTR-luciferase reporter assay in Jurkat E6.1 T-cells; settings: Jurkat E6.1 lymphocytes
Method: To determine the influence of the WRN helicase upon HIV-1 LTR transcriptional activation in CD4^+ lymphocytes, Jurkat E6.1 T-cells were co-transfected with HIV-1 LTR-luciferase (0.5 μg), RSV-HIV-1 Tat (0.5 μg), and increasing amounts of CMV-WRN or CMV-WRNK577M, which expresses a trans-dominant negative helicase-defective mutant (0.25, 0.5, 1.0 μg). Following transfection, the cells were lysed by repeated freeze-thawing and luciferase assays were performed, in duplicate, using equivalent amounts of total cellular proteins.

[5] = tested on: HIV-1IIIB-infected H9 lymphocytes; assay: Intracellular p24^Gag immunoblotting in transfected HIV-1IIIB-infected H9 lymphocytes; settings: PHA (10 ng/ml) and hIL-2 (50 U/ml) stimulated, over-expression
Method: The influence of over-expressing wild-type WRN, or trans-dominant-negative WRNK577M, proteins upon HIV-1 replication and the production of intracellular viral structural components was tested in HIV-infected H9 lymphocytes that were stimulated with PHA (10 ng/ml) and human IL-2 (50 U/ml) . HIV-1IIIB-infected H9 lymphocytes were transfected with increasing amounts of CMV-WRN, CMV-WRNK577M, or CMV-green fluorescent protein (GFP) negative control (1.0, 3.0 μg) and then stimulated with PHA (10 ng/ml) and hIL-2 (50 U/ml) to induce HIV-1 replication. The HIV-1 p24^Gag major capsid and cellular actin proteins were detected by immuno-blotting using appropriate primary antibodies. Protein expression was quantified using a densitometer and is represented graphically below immunoblotting results shown in FIG. 7A.

[6] = tested on: H9HIV-1IIIB lymphocytes; assay: Immunofluorescence-microscopy of p24^Gag in transfected HIV-1-infected H9 lymphocytes; settings: PHA/hIL-2 stimulated, Myc-epitope-tagged protein over-expression
Method: Immunofluorescence-microscopy was next performed to directly assess whether over-expression of Myc-epitope-tagged WRN or the trans-dominant-negative WRNK577M mutant influence HIV-replication and production of p24^Gag in infected H9HIV-1IIIB lymphocytes. HIV-1-infected H9 lymphocytes were transfected with increasing amounts of CMV-WRN, CMV-WRNK577M, or CβF empty vector (0.12, 0.25 μg) and were stimulated with PHA and hIL-2 as described above. Immunofluorescence-microscopy was performed to determine the influence of WRN or WRNK577M over-expression upon production of HIV-1 p24^Gag and viral replication. Expression of Myc-epitope-tagged WRN and WRNK577M proteins in transfected H9 cells was detected using a rabbit anti-Myc polyclonal antibody (Moser M J et al., Nucleic Acids Res. 28:648-654). Production of intracellular HIV-1 p24^Gag capsid protein was detected using a monoclonal anti-HIV-1 p24^Gag antibody. DAPI-staining was performed to visualize nuclei.

[7] = tested on: HIV-1 LTR; assay: HIV-1 LTR-luciferase / tk-renilla normalized reporter assay in HeLa cells; settings: for Tat-activated HIV-1 LTR luciferase activity with or without WRNK577M: highest concentration of WRNK577M versus Tat alone
Method: (§1) Therefore, we co-transfected immortalized WRN^-I- fibroblasts with a tk-renilla luciferase reporter plasmid (which produces red luminescence as a result of renilla luciferase expression driven by the Herpes Simplex Virus thymidine kinase (tk) minimal gene promoter)(0.5 μg) and an HIV-1 LTR-luciferase reporter construct (which produces green luminescence as a result of firefly luciferase expression driven by the HIV-1 LTR) (0.5 μg), and increasing amounts of RSV-HIV-1 Tat or RSV-HIV-1 TatK28A/K50A (0.15, 0.25, 0.5 μg) in the absence or presence of the trans-dominant negative CMV-WRNK577M mutant (0.5, 1.0 μg). The CMV-WRNK577M trans-dominant-negative helicase-defective mutant was co-expressed in certain experiments to inhibit Tat-activated HIV-1 LTR transcription and endogenous WRN functions in HeLa cells (Bai Y et al., Hum. Genet. 113:337-347). Samples were normalized to yield approximately equivalent renilla-luciferase expression to control for transfection efficiencies and any differences in overall transcription levels between WRN^-I- fibroblasts and HeLa cells. Normalized extracts were then compared to determine basal-level and Tat-activated HIV-1 LTR-luciferase transcription.

[8] = tested on: HIV-1 LTR; assay: HIV-1 LTR-luciferase / tk-renilla normalized reporter assay in immortalized WRN^-I- fibroblasts; settings: highest concentration of RSV-HIV-1 Tat
Method: In order to determine whether the WRN helicase is an essential cofactor for HIV-1 transcription and virus replication, basal and Tat-activated LTR-driven transcription were measured in WRN^-I-fibroblasts. These fibroblasts were obtained from Werner's syndrome patients and lack a functional WRN helicase protein (Moser M J et al., Nucleic Acids Res. 28:648-654).
as §1, with “Samples were normalized to yield approximately equivalent renilla-luciferase expression to control for transfection efficiencies and any differences in overall transcription levels between WRN^-I- fibroblasts and HeLa cells. Normalized extracts were then compared to determine basal-level and Tat-activated HIV-1 LTR-luciferase transcription.” left out

[9] = co-expression with Tat, increasing amounts
[10] = highest concentration of RSV-HIV-1 Tat

Row | Molecule | effect on basal HIV-1 LTR transcriptional activity (in words) [1] | transcription from the HIV-1 LTR^ΔκB-luciferase construct (in words) [2] | transcriptional activation of reporter deleted for κB-responsive elements and TAR-RNA [3] | intracellular production of p24^Gag capsid protein / HIV-1 replication (immunoblot) [5] | intracellular p24^Gag (immunofluorescence) [6] | Tat-activated HIV-1 LTR luciferase activity with or without WRNK577M [7] | also measured
1 | BLM helicase: BLM DNA-helicase expressed from CMV-BLM construct | does not affect basal HIV-1 LTR transcriptional activity | no significant influence |  |  |  |  | effect on Tat-mediated transcriptional activation (in words) ([1]; co-expression with Tat): does not significantly influence Tat-mediated transcriptional activation
2 | WRN helicase: wild-type Werner's syndrome helicase protein, 1432 amino acid residues, expressed from CMV construct | transcriptionally activates the HIV-1 LTR in a dose-dependent manner | to a level approximately one-half that observed for Tat | completely abrogated transcriptional activation | significantly higher intracellular production of the p24^Gag major viral capsid protein | increased intracellular p24^Gag |  | Tat-mediated LTR trans-activation on co-expression of helicase ([1]; co-expression with Tat, increasing amounts of construct): ~60 fold; transcriptional activation from the HIV-1 LTR ([1]; wild-type LTR, factor expressed alone): approx. 10 fold; trans-activation by Tat on co-expression of helicase [4, 9]: approximately 395 fold
3 | WRNK577M | represses basal transcription to levels below base-line | did not significantly promote transcription |  | represses production of the p24^Gag major capsid protein | markedly reduced levels of p24^Gag | 5,457,345 RLUs | effect on Tat's transcriptional activation from the HIV-1 LTR (in words) [4, 9]: repressed nearly one-half of Tat's transcriptional activation
4 | Tat: HIV-1 viral trans-activator protein, 81-101 amino acid residues, expressed from RSV construct |  |  | completely abrogated transcriptional activation |  |  | 14,518,374 RLUs | Tat-mediated trans-activation from the HIV-1 LTR^ΔκB-luciferase reporter [2]: 6.5 fold; transcriptional activation from the HIV-1 LTR ([4]; Tat alone): approximately 250 fold; Tat trans-activation of HIV-1 LTR [7, 10]: 22 fold; Tat-activated HIV-1 LTR luciferase activity [7, 10]: 14,834,412 RLUs; Tat trans-activation of HIV-1 LTR [8]: 0 fold; Tat-activated HIV-1 LTR luciferase activity [8]: 340 RLUs
5 | B1 |  |  |  |  |  |  | effect on WRN-mediated trans-activation from the HIV-1 TAR-RNA ([2]; co-expression with CMV-WRN): inhibited WRN-mediated trans-activation
